From patent publication US9988400B2 (Genentech, Inc., priority 2013, dated 2018)

Biological target: T1, HEK cells stably transfected with tetracycline inducible hNR1 and hNR2A (Homo sapiens, UniProt Q05586+Q12879)
T1 construct: expressed in transfected cells; host or cells: HEK cells, stably transfected, tetracycline/doxycycline inducible
Assay: Assay 1: Cell-Based Assay, cytosolic calcium response to positive allosteric modulators (with 30 μM glycine and 300 nM L-glutamate, EC30)
Details: Table 2; for EC50: cytosolic calcium response, with 30 μM glycine and 300 nM L-glutamate (EC30), — = no plateau was reached; for Max %: responses scaled relative to 100 μM L-glutamate maximal response (100%) and 0 μM L-glutamate (0%)
Description: Assay 1: Cell-Based Assay
HEK cells stably transfected with tetracycline inducible hNR1 and hNR2A were seeded into clear bottom 384 well poly-D-lysine coated plates (2.5×10^4 cells per well) in Minimum Essential Media (MEM; without L-) including 7.5 μg mL^−1 doxycycline and 500 μM (+)-ketamine. The cells were incubated at 37° C. in 5% CO2 for 24 h. For measurement of changes in cytosolic calcium, the seeding media was removed and the cells incubated at 37° C. for 60 min with 1× Becton Dickinson Calcium Assay Kit reagent in Hanks Balanced Salt Solution (HBSS; w/o magnesium, including 1.8 mM calcium, 0.65 mg ml^−1 probenecid and 10 μM (+)-ketamine, pH 7.15) then allowed to equilibrate to rt for 30 min. Concentration-effect curves to Positive Allosteric Modulators (PAMs) were constructed by adding different concentrations (with 30 μM glycine and 300 nM L-glutamate (EC30)) to different wells in HBSS. Compounds were added after a 10 second baseline read and maximum level of relative fluorescence units (RFU) was measured over a 5 min period. Responses were scaled relative to 100 μM L-glutamate maximal response (100%) and 0 μM L-glutamate (0%). EC50 values are provided for compounds reaching maximal response plateaus, and the max % (EC50 (- -)) only if no plateau was reached.
A four-parameter Hill equation was fitted to individual concentration-effect curves:
[formula] in which Y, S0, Sinf, AC50, n and c were effect, lower-asymptote, upper-asymptote, mid-point location, slope parameter, and concentration respectively.

T1 sequence (Q12879 23-1464, other chains not shown): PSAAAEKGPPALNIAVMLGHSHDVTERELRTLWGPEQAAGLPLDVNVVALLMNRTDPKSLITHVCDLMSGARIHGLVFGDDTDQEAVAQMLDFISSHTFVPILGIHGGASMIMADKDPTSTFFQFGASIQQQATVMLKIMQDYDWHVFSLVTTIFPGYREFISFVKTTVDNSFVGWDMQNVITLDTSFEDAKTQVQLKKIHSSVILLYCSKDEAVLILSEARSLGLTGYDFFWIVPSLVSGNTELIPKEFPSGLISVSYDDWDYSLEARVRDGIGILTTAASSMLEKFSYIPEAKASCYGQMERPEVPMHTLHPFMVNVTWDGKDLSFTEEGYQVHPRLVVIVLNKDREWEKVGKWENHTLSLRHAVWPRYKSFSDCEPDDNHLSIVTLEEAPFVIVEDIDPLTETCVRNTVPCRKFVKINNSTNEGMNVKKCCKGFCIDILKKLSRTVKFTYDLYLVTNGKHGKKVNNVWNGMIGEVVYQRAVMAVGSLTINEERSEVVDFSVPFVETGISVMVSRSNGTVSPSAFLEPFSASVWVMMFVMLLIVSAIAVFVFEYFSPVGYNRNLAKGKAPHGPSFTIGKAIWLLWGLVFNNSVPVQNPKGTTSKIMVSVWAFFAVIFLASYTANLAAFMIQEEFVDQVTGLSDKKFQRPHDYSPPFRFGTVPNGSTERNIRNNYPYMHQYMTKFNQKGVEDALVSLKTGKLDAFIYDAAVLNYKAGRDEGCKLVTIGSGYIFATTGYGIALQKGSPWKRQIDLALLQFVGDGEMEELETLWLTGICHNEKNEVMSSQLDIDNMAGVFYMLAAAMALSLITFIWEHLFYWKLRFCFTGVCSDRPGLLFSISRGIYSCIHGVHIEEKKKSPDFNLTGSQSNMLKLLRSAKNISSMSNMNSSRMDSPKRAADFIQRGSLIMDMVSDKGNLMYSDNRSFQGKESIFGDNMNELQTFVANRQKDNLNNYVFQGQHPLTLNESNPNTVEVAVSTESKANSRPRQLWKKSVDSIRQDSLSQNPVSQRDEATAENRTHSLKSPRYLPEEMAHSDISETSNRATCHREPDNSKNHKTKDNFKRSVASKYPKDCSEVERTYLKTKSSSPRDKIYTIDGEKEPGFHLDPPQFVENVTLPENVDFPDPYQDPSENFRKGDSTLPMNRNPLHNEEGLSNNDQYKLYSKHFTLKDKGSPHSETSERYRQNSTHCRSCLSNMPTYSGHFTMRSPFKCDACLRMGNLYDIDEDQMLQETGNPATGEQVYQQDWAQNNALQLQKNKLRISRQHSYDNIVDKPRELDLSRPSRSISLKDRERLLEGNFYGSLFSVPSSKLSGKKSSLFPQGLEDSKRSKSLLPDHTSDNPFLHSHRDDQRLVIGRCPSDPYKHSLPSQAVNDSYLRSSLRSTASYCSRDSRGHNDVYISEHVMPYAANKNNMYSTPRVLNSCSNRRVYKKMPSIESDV

| EC50 [µM] | Max % [%] | SMILES |
| --- | --- | --- |
| 0.782 | 137 | Cc1cc(Cl)n(Cc2cc(=O)n3c([C@@H]4C[C@H]4CO)c(C)sc3n2)n1 (relative stereo) [Example 15.4, 7-((5-chloro-3-methyl-1H-pyrazol-1-yl)methyl)-3-(trans-2-(hydroxymethyl)cyclopropyl)-2-methyl-5H-thiazolo[3,2-a]pyrimidin-5-one] |
| 1.7 | 131 | Cc1sc2nc(Cn3ccc(C(F)(F)F)n3)cc(=O)n2c1[C@@H]1C[C@H]1CO (relative stereo) [Example 15.5, 3-(trans-2-(hydroxymethyl)cyclopropyl)-2-methyl-7-((3-(trifluoromethyl)-1H-pyrazol-1-yl)methyl)-5H-thiazolo[3,2-a]pyrimidin-5-one] |
| 9.2 | 138 | Cc1sc2nc(Cn3ncc4ccccc43)cc(=O)n2c1[C@@H]1C[C@H]1CO (relative stereo) [Example 15.6, 7-((1H-indazol-1-yl)methyl)-3-(trans-2-(hydroxymethyl)cyclopropyl)-2-methyl-5H-thiazolo[3,2-a]pyrimidin-5-one] |
| 0.826 | 158 | Cc1sc2nc(Cn3nc(C(F)(F)F)cc3CCO)cc(=O)n2c1[C@@H]1C[C@H]1CO (relative stereo) [Example 15.7, 7-[[5-(2-hydroxyethyl)-3-(trifluoromethyl)-1H-pyrazol-1-yl]methyl]-3-[trans-2-(hydroxymethyl)cyclopropyl]-2-methyl-5H-[1,3]thiazolo[3,2-a]pyrimidin-5-one] |
| 30.8 | 122 | Cc1sc2nc(Cn3nc(CCO)cc3C(F)(F)F)cc(=O)n2c1[C@@H]1C[C@H]1CO (relative stereo) [Example 15.8, 7-((3-(2-hydroxyethyl)-5-(trifluoromethyl)-1H-pyrazol-1-yl)methyl)-3-(trans-2-(hydroxymethyl)cyclopropyl)-2-methyl-5H-thiazolo[3,2-a]pyrimidin-5-one] |
| 0.151 | 159 | Cc1sc2nc(Cn3nc(C(F)(F)F)cc3C3CC3)cc(=O)n2c1[C@@H]1C[C@H]1CO (relative stereo) [Example 15.11, 7-((5-cyclopropyl-3-(trifluoromethyl)-1H-pyrazol-1-yl)methyl)-3-(trans-2-(hydroxymethyl)cyclopropyl)-2-methyl-5H-thiazolo[3,2-a]pyrimidin-5-one] |
| 2.5 | 143 | Cc1sc2nc(Cn3nc(C4CC4)cc3C(F)(F)F)cc(=O)n2c1[C@@H]1C[C@H]1CO (relative stereo) [Example 15.12, 7-((3-cyclopropyl-5-(trifluoromethyl)-1H-pyrazol-1-yl)methyl)-3-(trans-2-(hydroxymethyl)cyclopropyl)-2-methyl-5H-thiazolo[3,2-a]pyrimidin-5-one] |
| 3.4 | 137 | Cc1sc2nc(Cn3nc(C4CC4)cc3C3CC3)cc(=O)n2c1[C@@H]1C[C@H]1CO (relative stereo) [Example 15.17, 7[(3,5-dicyclopropylpyrazol-1-yl)methyl]-3-[trans-2-(hydroxymethyl)cyclopropyl]-2-methyl-thiazolo[3,2-a]pyrimidin-5-one] |
| 10.5 | 143 | Cc1cc(C)n(Cc2nc3sc(C)c([C@@H]4C[C@H]4CO)n3c(=O)c2F)n1 (relative stereo) [Example 15.18, 7-((3,5-dimethyl-1H-pyrazol-1-yl)methyl)-6-fluoro-3-(trans-2-(hydroxymethyl)cyclopropyl)-2-methyl-5H-thiazolo[3,2-a]pyrimidin-5-one] |
| 0.512 | 126 | Cc1sc2nc(Cn3nc(C(F)(F)F)cc3C#N)cc(=O)n2c1[C@@H]1C[C@H]1CO (relative stereo) [Example 15.19, 1-((3-(trans-2-(hydroxymethyl)cyclopropyl)-2-methyl-5-oxo-5H-thiazolo[3,2-a]pyrimidin-7-yl)methyl)-3-(trifluoromethyl)-1H-pyrazole-5-carbonitrile] |
| 0.314 | 153 | Cc1sc2nc(Cn3nc(C(F)(F)F)cc3C3CC3)c(F)c(=O)n2c1[C@@H]1C[C@H]1CO (relative stereo) [Example 15.20, 7-((5-cyclopropyl-3-(trifluoromethyl)-1H-pyrazol-1-yl)methyl)-6-fluoro-3-(trans-2-(hydroxymethyl)cyclopropyl)-2-methyl-5H-thiazolo[3,2-a]pyrimidin-5-one] |
| 1.6 | 161 | Cc1sc2nc(Cn3nc(C#N)cc3C)cc(=O)n2c1[C@@H]1C[C@H]1CO (relative stereo) [Example 15.21, 1-[[3-[trans-2-(hydroxymethyl)cyclopropyl]-2-methyl-5-oxo-thiazolo[3,2-a]pyrimidin-7-yl]methyl]-5-methyl-pyrazole-3-carbonitrile] |
| 0.704 | 149 | Cc1sc2nc(Cn3nc(C(F)F)cc3C)cc(=O)n2c1[C@@H]1C[C@H]1CO (relative stereo) [Example 15.22, 7[[3-(difluoromethyl)-5-methyl-pyrazol-1-yl]methyl]-3-[trans-2-(hydroxymethyl)cyclopropyl]-2-methyl-thiazolo[3,2-a]pyrimidin-5-one] |
| 1.9 | 143 | Cc1sc2nc(Cn3ncc4ccc(F)cc43)cc(=O)n2c1[C@@H]1C[C@H]1CO (relative stereo) [Example 15.23, 7-[(6-fluoroindazol-1-yl)methyl]-3-[trans-2-(hydroxymethyl)cyclopropyl]-2-methyl-thiazolo[3,2-a]pyrimidin-5-one] |
| 16.5 | 137 | Cc1cc(C)n(Cc2cc(=O)n3c([C@@H]4C[C@H]4CO)c(C)sc3n2)n1 (relative stereo) [Example 15.25, 7-[(3,5-dimethylpyrazol-1-yl)methyl]-3-[trans-2-(hydroxymethyl)cyclopropyl]-2-methyl-thiazolo[3,2-a]pyrimidin-5-one] |
| 3.8 | 123 | Cc1sc2nc(Cn3ncc4cc(F)ccc43)cc(=O)n2c1[C@@H]1C[C@H]1CO (relative stereo) [Example 15.26, 7-[(5-fluoroindazol-1-yl)methyl]-3-[trans-2-(hydroxymethyl)cyclopropyl]-2-methyl-thiazolo[3,2-a]pyrimidin-5-one] |
| 12.2 | 116 | Cc1sc2nc(C(C)n3nc(C(F)(F)F)cc3C3CC3)cc(=O)n2c1[C@@H]1C[C@H]1CO (relative stereo) [Example 19.1, 7-(1-(5-cyclopropyl-3-(trifluoromethyl)-1H-pyrazol-1-yl)ethyl)-3-(trans-2-(hydroxymethyl)cyclopropyl)-2-methyl-5H-thiazolo[3,2-a]pyrimidin-5-one] |
| 1.8 | 148 | Cc1sc2nc(Cc3cccc(C#N)c3F)cc(=O)n2c1[C@@H]1C[C@H]1CO (relative stereo) [Example 20.3, 2-fluoro-3-((3-(trans-2-(hydroxymethyl)cyclopropyl)-2-methyl-5-oxo-5H-thiazolo[3,2-a]pyrimidin-7-yl)methyl)benzonitrile] |
| 8.5 | 147 | Cc1sc2nc(Cc3cncc4ccccc34)cc(=O)n2c1[C@@H]1C[C@H]1CO (relative stereo) [Example 20.4, 3-(trans-2-(hydroxymethyl)cyclopropyl)-7-(isoquinolin-4-ylmethyl)-2-methyl-5H-thiazolo[3,2-a]pyrimidin-5-one] |
| 24 | 124 | Cc1sc2nc(Cc3cccc(C(F)(F)F)c3)cc(=O)n2c1[C@@H]1C[C@H]1CO (relative stereo) [Example 20.5, 3-(trans-2-(hydroxymethyl)cyclopropyl)-2-methyl-7-(3-(trifluoromethyl)benzyl)-5H-thiazolo[3,2-a]pyrimidin-5-one] |
| 7.2 | 137 | Cc1ccc(C#N)cc1Cc1cc(=O)n2c([C@@H]3C[C@H]3CO)c(C)sc2n1 (relative stereo) [Example 20.6, 3-((3-(trans-2-(hydroxymethyl)cyclopropyl)-2-methyl-5-oxo-5H-thiazolo[3,2-a]pyrimidin-7-yl)methyl)-4-methylbenzonitrile] |
| 10.8 | 137 | Cc1sc2nc(Cc3cc(C#N)ccc3F)cc(=O)n2c1[C@@H]1C[C@H]1CO (relative stereo) [Example 20.7, 4-fluoro-3-((3-(trans-2-(hydroxymethyl)cyclopropyl)-2-methyl-5-oxo-5H-thiazolo[3,2-a]pyrimidin-7-yl)methyl)benzonitrile] |
| 19 | 134 | Cc1sc2nc(Cc3cc(F)cc(C#N)c3)cc(=O)n2c1[C@@H]1C[C@H]1CO (relative stereo) [Example 20.8, 3-fluoro-5-((3-(trans-2-(hydroxymethyl)cyclopropyl)-2-methyl-5-oxo-5H-thiazolo[3,2-a]pyrimidin-7-yl)methyl)benzonitrile] |
